Key:
[1] = compound: Cc1cc(Nc2ncc(Cl)c(Nc3ccccc3S(=O)(=O)C(C)C)n2)c(OC(C)C)cc1C1CCNCC1 [Ceritinib/LDK378]
[2] = compound: CN(C)C/C=C/C(=O)NC1=CC=C(C=C1)C(=O)NC2=CC=CC(=C2)NC3=NC=NC(=C3)C4=CNC5=CC=CC=C54 [THZ-P1-2]
[3] = compound: CCCCOc1c(C(=O)c2c(F)cc(C)cc2F)c[nH]c2nncc1-2
[4] = compound: CN1CCN(CCOc2cc(OC3CCOCC3)c3c(Nc4c(Cl)ccc5c4OCO5)ncnc3c2)CC1 [Saracatinib/AZD0530]
[5] = compound: CCNC(=O)c1noc(-c2cc(C(C)C)c(O)cc2O)c1-c1ccc(CN2CCOCC2)cc1 [Luminespib/NVP-AUY922]
[6] = compound: CN(C)C/C=C/C(=O)Nc1ccc(O[C@@H]2CCC[C@@H](Nc3ncc(Cl)c(-c4c[nH]c5ccccc45)n3)C2)cc1 [BSJ-01-175]
[7] = compound: CCOc1cc2ncc(C#N)c(Nc3ccc(OCc4ccccn4)c(Cl)c3)c2cc1NC(=O)/C=C/CN(C)C [Neratinib/HKI272]; experiment: increase in dead-cell fraction, 72 h; higher = more death;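 also: breast cancer cell lines in 384-well plates, stained with Hoechst plus LIVE/DEAD far red dye and imaged, cells above an LDR intensity threshold counted dead, Hoechst-negative corpses included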
[8] = compound: CN(C)C/C=C/C(=O)Nc1ccc(C(=O)Nc2cccc(Nc3ncc(Cl)c(-c4c[nH]c5ccccc45)n3)c2)cc1 [THZ1]; experiment: as above
[9] = compound: CCN1CCN(Cc2ccc(Nc3ncc(F)c(-c4cc(F)c5nc(C)n(C(C)C)c5c4)n3)nc2)CC1; experiment: as above
[10] = compound: C=CC(=O)Nc1ccc(C(=O)Nc2[nH]nc3c2CN(C(=O)N[C@H](CN(C)C)c2ccccc2)C3(C)C)cc1 [YKL-5-124]; experiment: as above
[11] = compound: CN(C)C/C=C/C(=O)Nc1ccc(C(=O)N2CCC[C@@H](Nc3ncc(Cl)c(-c4c[nH]c5ccccc45)n3)C2)cc1 [THZ531]; experiment: as above
[12] = compound: CN(C)C(=O)c1cc2cnc(Nc3ccc(N4CCNCC4)cn3)nc2n1C1CCCC1 [LEE011/Ribociclib]; experiment: as above
[13] = compound: CC(=O)c1c(C)c2cnc(Nc3ccc(N4CCNCC4)cn3)nc2n(C2CCCC2)c1=O; experiment: as above
[14] = compound: CC(=O)c1c(C)c2cnc(Nc3ccc(N4CCN(CCOCCOCCOCCNC(=O)COc5cccc6c5C(=O)N(C5CCC(=O)NC5=O)C6=O)CC4)cn3)nc2n(C2CCCC2)c1=O [BSJ-03-123]; experiment: as above
[15] = compound: CN1CC[C@H](c2c(O)cc(O)c3c(=O)cc(-c4ccccc4Cl)oc23)[C@H](O)C1 [Flavopiridol]; experiment: as above
[16] = compound: CCc1cnn2c(NCc3ccc[n+]([O-])c3)cc(N3CCCC[C@H]3CCO)nc12; experiment: as above
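For GR50, 72 h in this document: breast cancer and non-malignant breast epithelial cell lines, Deep Dye Drop or Dye Drop imaging, nine half-log doses, GR normalized to time-zero plates and DMSO-only controls.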

For AU565, the “GR50, 72 h” value [1] was 3.15 µM, the “GR50, 72 h” value [2] was 5.22 µM and the “GR50, 72 h” value [3] was 0.142 µM. For the same cell line, the “GR50, 72 h” value [4] was 4.82 µM, the “GR50, 72 h” value [5] was 0.00456 µM and the “GR50, 72 h” value [6] was 0.00616 µM. For the same cell line, the “increase in dead-cell fraction” value ([7]; 0.0003162 µM) was 0.0048, the “increase in dead-cell fraction” value ([7]; 0.001 µM) was 0.0173 and the “increase in dead-cell fraction” value ([7]; 0.003162 µM) was 0.0398. For the same cell line, the “increase in dead-cell fraction” value ([7]; 0.01 µM) was 0.0858, the “increase in dead-cell fraction” value ([7]; 0.03162 µM) was 0.16 and the “increase in dead-cell fraction” value ([7]; 0.1 µM) was 0.195. The “increase in dead-cell fraction” value ([7]; 0.3162 µM) was 0.232, the “increase in dead-cell fraction” value ([7]; 1 µM) was 0.206 and the “increase in dead-cell fraction” value ([7]; 3.162 µM) was 0.321. The “increase in dead-cell fraction” value ([8]; 0.0001 µM) was -0.0048, the “increase in dead-cell fraction” value ([8]; 0.0003162 µM) was -0.0064 and the “increase in dead-cell fraction” value ([8]; 0.001 µM) was -0.0098. For the same cell line, the “increase in dead-cell fraction” value ([8]; 0.003162 µM) was -0.0018, the “increase in dead-cell fraction” value ([8]; 0.01 µM) was 0.0038 and the “increase in dead-cell fraction” value ([8]; 0.03162 µM) was 0.0873. For the same cell line, the “increase in dead-cell fraction” value ([8]; 0.1 µM) was 0.262, the “increase in dead-cell fraction” value ([8]; 0.3162 µM) was 0.48 and the “increase in dead-cell fraction” value ([8]; 1 µM) was 0.579. The “increase in dead-cell fraction” value ([9]; 0.001 µM) was 0.0076, the “increase in dead-cell fraction” value ([9]; 0.003162 µM) was 0.0065 and the “increase in dead-cell fraction” value ([9]; 0.01 µM) was 0.0106. The “increase in dead-cell fraction” value ([9]; 0.03162 µM) was 0.0354, the “increase in dead-cell fraction” value ([9]; 0.1 µM) was 0.043 and the “increase in dead-cell fraction” value ([9]; 0.3162 µM) was 0.0403. For the same cell line, the “increase in dead-cell fraction” value ([9]; 1 µM) was 0.0369, the “increase in dead-cell fraction” value ([9]; 3.162 µM) was 0.0205 and the “increase in dead-cell fraction” value ([9]; 10 µM) was 0.085. The “increase in dead-cell fraction” value ([10]; 0.001 µM) was 0.0305, the “increase in dead-cell fraction” value ([10]; 0.003162 µM) was 0.0489 and the “increase in dead-cell fraction” value ([10]; 0.01 µM) was 0.0994. For the same cell line, the “increase in dead-cell fraction” value ([10]; 0.03162 µM) was 0.0877, the “increase in dead-cell fraction” value ([10]; 0.1 µM) was 0.0813 and the “increase in dead-cell fraction” value ([10]; 0.3162 µM) was 0.114. The “increase in dead-cell fraction” value ([10]; 1 µM) was 0.113, the “increase in dead-cell fraction” value ([10]; 3.162 µM) was 0.215 and the “increase in dead-cell fraction” value ([10]; 10 µM) was 0.524. The “increase in dead-cell fraction” value ([11]; 0.0001 µM) was 0.0002, the “increase in dead-cell fraction” value ([11]; 0.0003162 µM) was 0.0023 and the “increase in dead-cell fraction” value ([11]; 0.001 µM) was -0.0009. For the same cell line, the “increase in dead-cell fraction” value ([11]; 0.003162 µM) was 0.0019, the “increase in dead-cell fraction” value ([11]; 0.01 µM) was -0.005 and the “increase in dead-cell fraction” value ([11]; 0.03162 µM) was 0.0372. The “increase in dead-cell fraction” value ([11]; 0.1 µM) was 0.133, the “increase in dead-cell fraction” value ([11]; 0.3162 µM) was 0.297 and the “increase in dead-cell fraction” value ([11]; 1 µM) was 0.488. For the same cell line, the “increase in dead-cell fraction” value ([12]; 0.001 µM) was -0.0067, the “increase in dead-cell fraction” value ([12]; 0.003162 µM) was -0.0027 and the “increase in dead-cell fraction” value ([12]; 0.01 µM) was 0.0258. The “increase in dead-cell fraction” value ([12]; 0.03162 µM) was 0.0105, the “increase in dead-cell fraction” value ([12]; 0.1 µM) was 0.0143 and the “increase in dead-cell fraction” value ([12]; 0.3162 µM) was 0.0331. For the same cell line, the “increase in dead-cell fraction” value ([12]; 1 µM) was 0.0469, the “increase in dead-cell fraction” value ([12]; 3.162 µM) was 0.0463 and the “increase in dead-cell fraction” value ([12]; 10 µM) was 0.0439. The “increase in dead-cell fraction” value ([13]; 0.0003162 µM) was -0.0036, the “increase in dead-cell fraction” value ([13]; 0.001 µM) was -0.0011 and the “increase in dead-cell fraction” value ([13]; 0.003162 µM) was 0.0019. The “increase in dead-cell fraction” value ([13]; 0.01 µM) was -0.0007, the “increase in dead-cell fraction” value ([13]; 0.03162 µM) was 0.008 and the “increase in dead-cell fraction” value ([13]; 0.1 µM) was 0.0139. For the same cell line, the “increase in dead-cell fraction” value ([13]; 0.3162 µM) was 0.0209, the “increase in dead-cell fraction” value ([13]; 1 µM) was 0.0255 and the “increase in dead-cell fraction” value ([13]; 3.162 µM) was 0.0446. The “increase in dead-cell fraction” value ([14]; 0.001 µM) was 0.0012, the “increase in dead-cell fraction” value ([14]; 0.003162 µM) was -0.0066 and the “increase in dead-cell fraction” value ([14]; 0.01 µM) was 0.0069. The “increase in dead-cell fraction” value ([14]; 0.03162 µM) was -0.0059, the “increase in dead-cell fraction” value ([14]; 0.1 µM) was 0.0078 and the “increase in dead-cell fraction” value ([14]; 0.3162 µM) was 0.0057. The “increase in dead-cell fraction” value ([14]; 1 µM) was 0.0399, the “increase in dead-cell fraction” value ([14]; 3.162 µM) was 0.0336 and the “increase in dead-cell fraction” value ([14]; 10 µM) was 0.306. The “increase in dead-cell fraction” value ([15]; 0.0001 µM) was -0.0146, the “increase in dead-cell fraction” value ([15]; 0.0003162 µM) was -0.004 and the “increase in dead-cell fraction” value ([15]; 0.001 µM) was 0.0124. The “increase in dead-cell fraction” value ([15]; 0.003162 µM) was 0.0024, the “increase in dead-cell fraction” value ([15]; 0.01 µM) was -0.0083 and the “increase in dead-cell fraction” value ([15]; 0.03162 µM) was 0.0121. The “increase in dead-cell fraction” value ([15]; 0.1 µM) was 0.0266, the “increase in dead-cell fraction” value ([15]; 0.3162 µM) was 0.262 and the “increase in dead-cell fraction” value ([15]; 1 µM) was 0.602. For the same cell line, the “increase in dead-cell fraction” value ([16]; 0.0001 µM) was 0.0029, the “increase in dead-cell fraction” value ([16]; 0.0003162 µM) was 0.0001 and the “increase in dead-cell fraction” value ([16]; 0.001 µM) was 0.0027. For the same cell line, the “increase in dead-cell fraction” value ([16]; 0.003162 µM) was 0.0033, the “increase in dead-cell fraction” value ([16]; 0.01 µM) was 0.0437 and the “increase in dead-cell fraction” value ([16]; 0.03162 µM) was 0.247. For the same cell line, the “increase in dead-cell fraction” value ([16]; 0.1 µM) was 0.346, the “increase in dead-cell fraction” value ([16]; 0.3162 µM) was 0.315 and the “increase in dead-cell fraction” value ([16]; 1 µM) was 0.345.
